Earlier results on 2 molecules are cited in US20130116211A1, “Novel Salts Of Boswellic Acids And Selectively Enriched Boswellic Acids And Processes For The Same” (priority 2005, published 2013).

Data set [1] deals with symptoms of osteoarthritis. The settings on record: relieving the symptoms of osteoarthritis, double-blind studies.
For a further data set, the target named is T1, 5-LOX (Homo sapiens, UniProt P09917).
T1 sequence (P09917 1-674): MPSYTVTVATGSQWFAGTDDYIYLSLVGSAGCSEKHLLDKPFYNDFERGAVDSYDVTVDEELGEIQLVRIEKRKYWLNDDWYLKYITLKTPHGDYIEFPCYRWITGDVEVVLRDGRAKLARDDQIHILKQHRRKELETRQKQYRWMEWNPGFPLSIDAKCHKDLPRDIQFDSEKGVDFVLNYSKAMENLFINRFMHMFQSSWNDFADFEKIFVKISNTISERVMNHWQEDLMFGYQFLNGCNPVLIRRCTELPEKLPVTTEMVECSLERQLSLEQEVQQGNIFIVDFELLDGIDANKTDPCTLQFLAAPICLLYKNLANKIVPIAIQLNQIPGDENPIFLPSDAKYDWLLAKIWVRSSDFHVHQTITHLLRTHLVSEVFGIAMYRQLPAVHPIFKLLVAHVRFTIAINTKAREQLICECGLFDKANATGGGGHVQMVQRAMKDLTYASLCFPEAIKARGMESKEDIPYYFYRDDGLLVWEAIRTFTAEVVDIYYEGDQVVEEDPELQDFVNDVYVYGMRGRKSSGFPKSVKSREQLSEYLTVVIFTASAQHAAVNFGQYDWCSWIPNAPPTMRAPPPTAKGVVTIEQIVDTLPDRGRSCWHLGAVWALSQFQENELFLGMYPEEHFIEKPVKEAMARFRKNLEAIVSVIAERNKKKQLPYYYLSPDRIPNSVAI

In the case of `N[C@H]1C(O)O[C@H](CO)[C@@H](O)[C@@H]1O.O=S(=O)(O)O` (stereo partly drawn) [glucosamine sulfate], the “therapeutic effects versus non steroidal anti-inflammatory drugs” value in data set [1] is recorded as “comparable to or even better than”.

On to “3-O-acetyl-11-keto-β-boswellic acid [AKBA]”, for which, at 5-LOX (binds in a calcium-dependent and reversible manner (Sailer 1998)), the “mechanism of 5-LOX inhibition” value is recorded as “non-redox-type, non-competitive inhibitor”. For the same molecule, the “inhibitory activity against 5-LOX” value at 5-LOX (compared among all the six boswellic acids (Sailer 1996)) is “most pronounced inhibitory activity”.
